From patent US20100113391A1, “BICYCLIC HETEROCYCLIC COMPOUND” (Astellas Pharma Inc., priority 2007, published 2010)

Legend:
[1] = tested on: human platelets (platelet rich plasma), ADP-induced aggregation; test: Human platelet aggregation inhibitory activity measurement test (ADP-induced, PRP); assay type: cell-based; conditions: compound 10 μM (final concentration); ADP-induced aggregation of human PRP; area under the platelet aggregation curve
Method: Test Method (1) Human Platelet Aggregation Inhibitory Activity Measurement Test
Using a syringe in which 1/10 vol of a 3.8% sodium citrate solution is contained, blood was collected from a healthy volunteer (adult). The blood was subjected to a centrifugation at 160×g for 10 minutes and a supernatant platelet rich plasma (PRP) was separated. The remaining blood of which the PRP has been collected was subjected to a centrifugation at 1,800×g for 10 minutes and a platelet poor plasma (PPP) was separated. The number of the platelets in the PRP was measured using an automatic blood cell counter (MEK-6258, Nihon Kohden Corporation). After that, the PPP was added to the PRP to adjust the number of the platelets to 3×10^8 /ml, thereby using the platelets for the following tests. As an ADP, which is a platelet aggregating agent, a product manufactured by MC Medical Inc. was used. The platelet aggregation was measured using a platelet aggregometer (MCM Hematracer 212; MC medical Inc.). That is, 80 μl of the PRP having the number of the platelets of 3×10^8 /ml and 10 μl of a test compound solution or solvent (10% DMSO or 10% DMSO-9% hydroxypropyl-β-cyclodextrin-4.5% d-mannitol) were incubated at 37° C. for 1 minute and then 10 μl of ADP (50 μM) was added to the mixture to cause platelet aggregation, thereby recording a variation in transmitted light for 5 minutes. An inhibition rate was calculated using an area under the platelet aggregation curve as an index. In addition, Ex represents a number of the compounds of Examples.

Human P2Y12 = target: T1, Human P2Y12 (Homo sapiens, UniProt Q9H244); test: Substitution test for the binding between human P2Y12 and 2-methylthio-ADP (2-MeS-ADP); conditions: compound 30 nM (final concentration); [33P]-2-MeS-ADP binding to P2Y12 protein-expressing C6-15 cell membrane fraction
T1 construct: expressed in transfected cells
T1 sequence (Q9H244 whole entry): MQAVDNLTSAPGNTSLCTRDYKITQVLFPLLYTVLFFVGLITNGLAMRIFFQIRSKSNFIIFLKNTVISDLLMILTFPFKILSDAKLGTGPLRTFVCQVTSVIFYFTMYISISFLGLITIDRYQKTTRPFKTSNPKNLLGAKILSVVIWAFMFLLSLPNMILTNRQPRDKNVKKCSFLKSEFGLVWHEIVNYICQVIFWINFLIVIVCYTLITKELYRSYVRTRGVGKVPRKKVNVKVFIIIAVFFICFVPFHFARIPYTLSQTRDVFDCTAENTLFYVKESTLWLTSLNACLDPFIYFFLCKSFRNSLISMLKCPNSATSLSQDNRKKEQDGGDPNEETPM
Method: Test Method (2) Substitution Test for the binding between Human P2Y12 and 2-methylthio-ADP(2-MeS-ADP)
In a 10 cm petri dish, C6-15 cells were spread to be 1×10^6 of cells by using a DMEM culture medium and cultured for 1 day. After that, genes of plasmids such as 8 μg of pEF-BOS-dhfr-human P2Y12 and 0.8 μg of pEF-BOS-neo (Nucleic Acid Res., 18, 5322, 1990) were introduced to the cells using a transfection reagent (LipofectAMINE 2000; manufactured by GIBCO BRL Inc.).
After 24 hours since the above-mentioned gene introduction operation had been completed, the cells to which the genes were introduced were recovered and suspended in a DMEM culture medium containing 0.6 mg/ml of G418 (manufactured by GIBCO BRL Inc.). After that, the cells were serially diluted and spread on a 10 cm petri dish. Colonies appeared after 2 weeks later were individually collected and used in the following tests as P2Y12 protein-expressing C6-15 cells (WO 02/36631, Mol. Pharmacol., 60, 432, 2001).
The P2Y12 protein-expressing C6-15 cells were cultured and then the cells were recovered. The cells were washed with PBS, suspended in 20 mM Tris-HCl (pH 7.4) containing 5 mmol/l EDTA and Complete™ (manufactured by Boehringer Mannheim) which is a protease inhibitor cocktail set, and homogenized by Polytron. The cells were subjected to an ultracentrifugation and a precipitate is suspended in 50 mM Tris-HCl (pH 7.4) containing 1 mM of EDTA, 100 mM NaCl, and Complete™ to perform membrane fraction.
To 100 μl of the P2Y12 protein-expressing C6-15 cell membrane fraction (100 μg/ml) produced as mentioned above, 1.5 μl of a test compound solution and 50 μl of 0.75 nM [^33P]-2-MeS-ADP (2100 Ci/mmol, manufactured by PerkinElmer Inc.) were added. The mixture was incubated in 50 mM Tris-HCl (pH 7.4) containing 100 mM NaCl and 50 mM MgCl2 at room temperature for 1 hour, and then recovered by cell harvest on a glass filter. Microscintillators were added to the glass filter and the radioactive activity was measured by a liquid scintillation counter. In addition, simultaneously, the radioactivity in the case where only a solvent is added to the above-mentioned test and in the case where 1.5 μl of 250 μM ADP is added thereto were measured respectively as the total binding amount and the nonspecific binding amount. The total binding amount and the nonspecific binding amount were set respectively as the inhibition rate of 0% and the inhibition rate of 100% to calculate the inhibition rate (%) of the test compound.

[2] = tested on: rat platelets (PRP), ADP-induced aggregation; test: Rat platelet aggregation inhibition test (ex vivo after oral administration); assay type: in vivo; conditions: male SD rat, 30 mg/kg orally, blood collected 2 hours after administration; ADP-induced aggregation of PRP
Method: Test Method (3) Rat Platelet Aggregation Inhibition Test and Measurement of Test Compound Concentration in Plasma
An aqueous sodium hydroxide solution and the same amount of a 1% aqueous methyl cellulose solution were added to the compound of the invention to prepare a 0.5% aqueous methyl cellulose solution or a suspension solution. This preparation solution was orally administered to a male SD rat (5 to 7 weeks old) which has been fasted over 12 hours using a sonde at a dose of 30 mg/kg. After 2 hours later since the administration of the compound, using a syringe in which 1/10 vol of a 3.8% sodium citrate solution is contained, a blood was collected. In the same manner as in Test Method (1), a PPP and a PRP having the number of the platelets as 3×10^8 /ml were prepared. 90 μl of the PRP having the number of the platelets of 3×10^8 /ml was incubated at 37° C. for 1 minute and then 10 μl of ADP (50 μM) was added thereto to cause platelet aggregation, thereby recording a variation in transmitted light for 5 minutes. An inhibition rate was calculated using an area under the platelet aggregation curve as an index.

`O=C(O)COn1c(=O)c2cc(F)c(NC3CCCCC3)cc2n(C2CCCC2)c1=O` [Example 24, {[7-(cyclohexylamino)-1-cyclopentyl-6-fluoro-2,4-dioxo-1,4-dihydroquinazolin-3(2H)-yl]oxy}acetic acid] showed an inhibition at 10 µM [1] of 89% and an inhibition at 0.03 µM (Human P2Y12) of 60%.

Molecule `O=C(O)CNC(=O)Cn1c(=O)c2cc(F)c(NC3CCCCC3)cc2n(C2CCCC2)c1=O` [Example 42] has an inhibition at 10 µM [1] of 75% and an inhibition at 0.03 µM (Human P2Y12) of 56%.

In the case of `O=C(O)/C=C/Cn1c(=O)c2cc(F)c(NC3CCCCC3)cc2n(C2CCCC2)c1=O` [Example 65], the inhibition at 10 µM [1] is reported as 86% and the “% Inhibition” value [2] is reported as 56%.

`O=C(O)Cn1c(=O)c2cc(F)c(NCC3CC3)cc2n(C2CCCC2)c1=O` [Example 69] showed an inhibition at 10 µM [1] of 50%.

`CC(C)n1c(=O)n(CCCC(=O)O)c(=O)c2cc(F)c(NC3CCCCC3)cc21` [Example 77] gave an inhibition at 10 µM [1] of 88%.

`CC(CCn1c(=O)c2cc(F)c(NC3CCCCC3)cc2n(C2CCCC2)c1=O)C(=O)O` (centres unmarked) [Example 114] was tested, and the inhibition at 10 µM [1] was 91%, the inhibition at 0.03 µM (Human P2Y12) was 71% and the “% Inhibition” value [2] was 90%.

`O=C(O)CCCNn1c(=O)c2cc(F)c(NC3CCCCC3)cc2n(C2CCCC2)c1=O` [Example 155] showed an inhibition at 10 µM [1] of 93% and an inhibition at 0.03 µM (Human P2Y12) of 72%.

For `O=C(O)COc1cccc(Cn2c(=O)c3cc(F)c(NC4CCCCC4)cc3n(C3CCCC3)c2=O)c1` [Example 157], the inhibition at 0.03 µM (Human P2Y12) was 67%.
